Patent publication US12116573B2, “Targeting ligands for therapeutic compounds” (Arrowhead Pharmaceuticals, Inc., priority 2016, dated 2024)

Assay: Solubility of targeting ligand phosphoramidite compounds in oligonucleotide synthesis solvent (Example 5)
Type: physicochemical
Settings: for solubility relative to Structure 103d: solvents for oligonucleotide synthesis
Description: The compositions were solubilized in dichloromethane (DCM) and dried over sieves.

Question: Which “solubility relative to Structure 103d” value does the source give for `CC(=O)NC1C(OCCOCCNC(=O)CCC(NC(=O)CCC(NC(=O)CCOCCOCCOCCOCCOCCOCCOP(OCCC#N)N(C(C)C)C(C)C)C(=O)NCCOCCOC2OC(COC(C)=O)C(OC(C)=O)C(OC(C)=O)C2NC(C)=O)C(=O)NCCOCCOC2OC(COC(C)=O)C(OC(C)=O)C(OC(C)=O)C2NC(C)=O)OC(COC(C)=O)C(OC(C)=O)C1OC(C)=O` (stereo not drawn) [Structure 101d, Tri-NAG-bis-Glu-NH-PEG6 phosphoramidite] here?
Answer: greater solubility

Question: With `CC(=O)NC1C(OCCOCCNC(=O)CCC(NC(=O)CCC(NC(=O)CCOCCOCCOCCOCCOCCOCCOCCOCCOP(OCCC#N)N(C(C)C)C(C)C)C(=O)NCCOCCOC2OC(COC(C)=O)C(OC(C)=O)C(OC(C)=O)C2NC(C)=O)C(=O)NCCOCCOC2OC(COC(C)=O)C(OC(C)=O)C(OC(C)=O)C2NC(C)=O)OC(COC(C)=O)C(OC(C)=O)C1OC(C)=O` (stereo not drawn) [Structure 102d, Tri-NAG-bis-Glu-NH-PEG8 Phosphoramidite] as the compound, how does the “solubility relative to Structure 103d” value read?
Answer: greater solubility

Question: Which “dissolution under standard conditions” value (standard concentrations and solvent conditions typical for oligonucleotide synthesis) does the source give for `CC(=O)NC1C(OCCOCCNC(=O)CCC(NC(=O)CCC(NC(=O)CCOCCOCCOCCOCCOP(OCCC#N)C(C(C)C)C(C)C)C(=O)NCCOCCOC2OC(COC(C)=O)C(OC(C)=O)C(OC(C)=O)C2NC(C)=O)C(=O)NCCOCCOC2OC(COC(C)=O)C(OC(C)=O)C(OC(C)=O)C2NC(C)=O)OC(COC(C)=O)C(OC(C)=O)C1OC(C)=O` (stereo not drawn) [Structure 103d, Tri-NAG-bis-Glu-NH-PEG4 phosphoramidite] here?
Answer: difficult to dissolve
